Experimental data published in patent US20240408279A1, “SUPRAMOLECULAR-COVALENT COMPOSITE SLURRY FOR CARTILAGE REPAIR” (Northwestern University, priority 2021, published 2024).

Legend:
[1] = system: osteochondral defect in the medial femoral condyle; experiment: Osteochondral defect repair, medial femoral condyle (ICRS macroscopic and modified O'Driscoll histology scoring); type: in vivo, sheep; conditions: TGFβ (+); for median Macroscopic Score: 12-point scale; for median Histology Score: 24-point scale
Procedure: (§1) Osteochondral defect filling and regeneration: Skeletally mature female sheep were anesthetized and arthrotomy was performed bilaterally. One 3-4 mm deep and 7 mm diameter osteochondral defect was made in the medial femoral condyle of each stifle and one defect of the same dimensions in the femoral trochlear groove of each stifle. In one stifle, both defects were immediately filled with the PA/HA hybrid with 1 μg/mL TGFβ-1 preloaded as indicated. In the contralateral stifle, saline was immediately added to both defects, which was supplemented with TGFβ-1 at the same concentration as used in the material treated stifle. A calcium chloride solution was then dripped on top of each defect. […] allowed the sheep to stand on the hindlimbs. Samples of each sheep's synovial fluid was antiseptically drawn immediately prior to surgery and one week following surgery. After euthanasia, gross appearance of the defect areas was assessed the ICRS macroscopic scoring system (Ref. 59; incorporated by reference in its entirety) (Table 4). The samples were then fixed in formalin, decalcified the samples and prepared sections which were stained with H&E, with safranin O, or immunohistochemically for collagen II. Sections were scored using a modified O'Driscoll scoring system (Ref. 60; incorporated by reference in its entirety) (Table 5).
(§2) Preparation of material for surgical implant: Heat treated PA solutions prepared at 19 mM were combined with a 10 μg/mL TGFβ-1 solution (R&D Systems) dissolved in a 0.1% BSA, 4 mM HCl buffer or with the buffer alone at a 9:1 ratio. The combination was mixed by pipetting and kept on ice for 1 h. 900 μL of the mixed solution was added to 36 mg of crosslinked HA particles prepared under sterile conditions and allowed to hydrate for 1 h. The hybrid material was packed into a 1 mL syringe with a 19-gauge needle attached and kept on ice until use during surgery.
Animal study design: Animal work was performed at the University of Wisconsin, School of Veterinary Medicine, and all procedures were approved by the Institutional Animal Use and Care Committee. Thirty-six mature female sheep ranging in age from 2-7 (mean=3.7±1.7) years weighing between 60 and 100 (mean=74±8.3) kg were used in this study. Animals were divided into 6 groups: (1) 1 pilot sheep sacrificed at 1 week to assess material retention, (2) 6 sheep sacrificed at 4 weeks treated with PA and TGFβ-1, with 1 sheep sacrificed prior to 4 weeks due to patellar luxation and excluded from the analysis, (3) 6 sheep sacrificed at 4 weeks with PA, but without TGFβ-1 treatment, (4) 14 sheep sacrificed at 12 weeks with PA and TGFβ-1 treatment, with 4 sheep sacrificed prior to 12 weeks due to patellar luxation and excluded from analysis, (5) 6 sheep sacrificed at 12 weeks with PA but without TGFβ-1 treatment, with 2 sacrificed prior to 12 weeks due to patellar luxation and excluded from analysis, and (6) two sheep sacrificed at 24 weeks with PA and TGFβ-1 treatment.
Surgical technique: Prior to surgery the sheep were fasted for 24 h, and withheld water for 12 h. Sheep were administered a dose of Xylazine (0.1-0.22 mg/kg IM) in their pen to sedate them for transport to the surgical suite as well as a pre-operative dose of buprenorphine (0.0006-0.01 mg/kg IM) for analgesia. Sheep were then induced with ketamine-midazolam (2-10 mg/kg-0.1-0.3 mg/kg IM) and immediately intubated. Once intubated the sheep were maintained on isoflurane (0-4%) in 100% O2. At this time, a dose of Procaine Penicillin-G (10,000-20,000 IU/kg) IM was administered. Using aseptic techniques, a medial stifle arthrotomy was performed on both limbs of each sheep. In each stifle, one osteochondral defect was made in the medial femoral condyle and a second was made in the femoral trochlear groove using a Stryker EHD variable speed surgical drill and a cannulated drill bit. For the 24-week group, defects were made in the condyle only and not the trochlear groove. […]

[2] = system: osteochondral defect in the femoral trochlear groove; experiment: Osteochondral defect repair, femoral trochlear groove (ICRS macroscopic and modified O'Driscoll histology scoring); type: in vivo, sheep; conditions: Trochlea, TGFβ (+), control = TGFβ-1 in saline; for median Macroscopic Score: 12-point scale; for median Histology Score: 24-point scale
Procedure: as §1, §2
Animal study design: Animal work was performed at the University of Wisconsin, School of Veterinary Medicine, and all procedures were approved by the Institutional Animal Use and Care Committee. Thirty-six mature female sheep ranging in age from 2-7 (mean=3.7±1.7) years weighing between 60 and 100 (mean=74±8.3) kg were used in this study. […]

[3] = 4 weeks, control = TGFβ-1 in saline
[4] = 12 weeks, control = TGFβ-1 in saline

## Control: in TGFβ (+) groups: contralateral control defects filled with 1 μg/mL TGFβ-1 in saline solution
[1]; [3]
  median Macroscopic Score: 5
  median Histology Score: 9.7
[1]; [4]
  median Macroscopic Score: 7
  median Histology Score: 10
[1]; 24 weeks
  median Macroscopic Score: 9
  median Histology Score: 15.3
[2]; 4 weeks
  median Macroscopic Score: 5.7
  median Histology Score: 10.3
[2]; 12 weeks
  median Macroscopic Score: 10.33
  median Histology Score: 11
